According to patent US8101615B2, “1,4-diaryl-dihydropyrimidin-2-ones and their use as human neutrophil elastase inhibitors” (Bayer Pharma Aktiengesellschaft, priority 2004, dated 2012):

target: T1, human neutrophil elastase (HNE) (Homo sapiens, UniProt P08246); test: In vitro inhibition of HNE using a fluorogenic peptide substrate (Example I-A); format: biochemical; conditions: fluorogenic peptide substrate MeOSuc-Ala-Ala-Pro-Val-AMC, 384 MTP assay format
T1 construct: purchased SERVA Electrophoresis GmbH, Heidelberg, Germany #20927.01
T1 sequence (P08246 30-267): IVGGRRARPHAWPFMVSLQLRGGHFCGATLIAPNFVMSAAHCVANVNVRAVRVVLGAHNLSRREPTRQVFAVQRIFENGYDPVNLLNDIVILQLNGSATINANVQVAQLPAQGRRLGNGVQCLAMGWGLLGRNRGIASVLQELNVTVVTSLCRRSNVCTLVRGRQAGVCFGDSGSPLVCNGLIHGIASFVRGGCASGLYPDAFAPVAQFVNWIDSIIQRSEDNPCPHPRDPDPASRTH
Protocol: I. In vitro Enzyme Assays of Human Neutrophil Elastase (HNE)
The test solution is prepared by mixing 10 μl of test compound dilution, 20 μl of HNE enzyme dilution (final concentration 8-0.4 μU/ml, routinely 2.1 μU/ml) and 20 μl of substrate dilution (final concentration 1 mM-1 μM, routinely 20 μM), respectively. The solution is incubated for 0-2 hrs at 37° C. (routinely one hour). The fluorescence of the liberated AMC due to the enzymatic reaction is measured at 37° C. (TECAN spectra fluor plus plate reader). […] IC50 values are determined by RFU-versus-[I] plots. Km and Km(app.) values are determined by Lineweaver-Burk plots and converted to Ki values by Dixon plots.

IC50 [nM]	Molecule
23	COC(=O)c1coc(CN2C(=O)N(c3cccc(C(F)(F)F)c3)C(C)=C(C(=O)C3CC3)C2c2ccc(C#N)cc2)n1 (centres unmarked) [Example 43, Methyl 2-{[6-(4-cyanophenyl)-5-(cyclopropylcarbonyl)-4-methyl-2-oxo-3-[3-(trifluoromethyl)phenyl]-3,6-dihydropyrimidin-1(2H)-yl]methyl}-1,3-oxazole-4-carboxylate]
20	CC1=C(CO)C(c2ccc(C#N)cc2)NC(=O)N1c1cccc(C(F)(F)F)c1 (centres unmarked) [Example 1, 4-{5-(Hydroxymethyl)-6-methyl-2-oxo-1-[3-(trifluoromethyl)phenyl]-1,2,3,4-tetrahydropyrimidin-4-yl}benzonitrile]
200	CC1=C(C(=O)NC2CC2)C(c2ccc(C#N)cc2)NC(=O)N1c1cccc(C(F)(F)F)c1 (centres unmarked) [Example 6, 4-(4-Cyanophenyl)-N-cyclopropyl-6-methyl-2-oxo-1-[3-(trifluoromethyl)phenyl]-1,2,3,4-tetrahydropyrimidine-5-carboxamide]
50	CC1=C(CCC(=O)O)C(c2ccc(C#N)cc2)NC(=O)N1c1cccc(C(F)(F)F)c1 (centres unmarked) [Example 78, 3-{4-(4-Cyanophenyl)-6-methyl-2-oxo-1-[3-(trifluoromethyl)phenyl]-1,2,3,4-tetrahydropyrimidin-5-yl}propanoic acid]
1000	CC1=C(C(=O)NCc2ccccc2F)C(c2ccc(C#N)cc2)NC(=O)N1c1cccc(C(F)(F)F)c1 (centres unmarked) [Example 14]
20	CC1=C(C(=O)C2CC2)C(c2ccc(C#N)cc2)N(CC(=O)NS(=O)(=O)CC(F)(F)F)C(=O)N1c1cccc(C(F)(F)F)c1 (centres unmarked) [Example 45, 2-[6-(4-Cyanophenyl)-5-(cyclopropylcarbonyl)-4-methyl-2-oxo-3-[3-(trifluoromethyl)phenyl]-3,6-dihydropyrimidin-1(2H)-yl]-N-[(2,2,2-trifluoroethyl)sulfonyl]acetamide]
50	CC1=C(C(=O)NS(=O)(=O)CC(F)(F)F)C(c2ccc(C#N)cc2)N(CC(=O)OC(C)(C)C)C(=O)N1c1cccc(C(F)(F)F)c1 (centres unmarked) [Example 69]
130	CC1=C(C(=O)C2CCCCC2)C(c2ccc(C#N)cc2)NC(=O)N1c1cccc(C(F)(F)F)c1 (centres unmarked) [Example 21, 4-{5-(Cyclohexylcarbonyl)-6-methyl-2-oxo-1-[3-(trifluoromethyl)phenyl]-1,2,3,4-tetrahydropyrimidin-4-yl}benzonitrile]
1000	CC1=C(C(=O)NS(=O)(=O)c2ccc(C#N)cc2)C(c2ccc(C#N)cc2)NC(=O)N1c1cccc(C(F)(F)F)c1 (centres unmarked) [Example 73]

test system: human polymorphonuclear cells (PMNs); test: In vitro PMN elastolysis assay (Example II-A); format: cell-based; conditions: at 1.2 μM; mean±s.e.m.; n=3 different donors at 3.6×10^5 cells per well
Protocol: This assay is used to determine the elastolytic potential of human polymorphonuclear cells (PMNs) and assess the proportion of degradation due to neutrophil elastase [cf. Z. W. She et al., Am. J. Respir. Cell. Mol. Biol. 9, 386-392 (1993)].
Tritiated elastin, in suspension, is coated on to a 96 well plate at 10 μg per well. Test and reference [ZD-0892 (J. Med. Chem. 40, 1876-1885, 3173-3181 (1997), WO 95/21855) and α1 protease inhibitor (α1PI)] compounds are added to the wells at the appropriate concentrations. Human PMNs are separated from peripheral venous blood of healthy donors and resuspended in culture media. The neutrophils are added to the coated wells at concentrations ranging between 1×10^6 to 1×10^5 cells per well. Porcine pancreatic elastase (1.3 μM) is used as a positive control for the assay, and α1PI (1.2 μM) is used as the positive inhibitor of neutrophil elastase. The cellular control is PMNs without compound at each appropriate cell density. The cells plus compounds are incubated in a humidified incubator at 37° C. for 4 hours. The plates are centrifuged to allow the harvest of cell supernatant only. […] The plates are dried until no liquid is visible in the wells and read in a beta counter for 3 minutes per well. […]
The compounds of this invention are evaluated for their inhibitory activity in this HNE-dependent model of neutrophil elastolysis.

Molecule	inhibition of 3H-elastin elastolysis [%]
α1PI: α1 protease inhibitor, used as the positive inhibitor of neutrophil elastase	83.46±3.97

same assay, conditions: mean±s.e.m.; n=2 different donors at 3.6×10^5 cells per well

IC50 [nM]	Molecule
45.5 ± 7.75	COc1ccc(C(=O)N[C@H](C(=O)N2CCC[C@H]2C(=O)N[C@H](C(=O)C(F)(F)F)C(C)C)C(C)C)cc1 [ZD-0892]
